One assay concerns LNCaP.FGC cells. As to the kind of experiment: In vitro cytotoxicity of MMAE conjugates (CellTiter-Glo), LNCaP.FGC. Particulars: read-out: LNCaP.FGC IC50, 7 days. Background: In ATP-based viability assays light output follows the ATP content of the culture.
The next assay relates to HEK293-PSMA cells. As to the kind of experiment: In vitro cytotoxicity of MMAE conjugates (CellTiter-Glo), HEK293-PSMA. Particulars: read-out: HEK293-PSMA IC50, 7 days, CellTiter-Glo.

“And” between values parts separate entries of the source, which are not always exact repeats. Identical values can stand only once.

As for PSMA, the IC50 (commonly the concentration needed to halve the response being measured) in the assay on LNCaP.FGC cells was 0.15 nM and 0.1 nM; with HEK293-PSMA cells, 0.07 nM and 0.06 nM.

These data come from patent US20250177547A1, “PSMA-STEAP1 DUAL VARIABLE DOMAIN IMMUNOGLOBLIN (DVD-Ig) MOLECULES AND DRUG CONJUGATES” (AbbVie Inc., priority 2023, published 2025).
